We go through 29 compounds from US7183276B2, “Azole compounds” (Takeda Pharmaceutical Company Limited, priority 2002, dated 2007).

A word on the melting point: it is the temperature, or range, at which the solid turns liquid. Take `O=C(CCCc1oc(-c2ccccc2)nc1-c1ccc(Cl)cc1)N1CCN(c2ccccc2)CC1` [Example 51, 1-{4-[4-(4-chlorophenyl)-2-phenyl-5-oxazolyl]butanoyl}-4-phenylpiperazine]: the melting point is 104 to 105 °C.

As for `O=C(O)Cc1ccc(NC(=O)CCc2oc(-n3cnc4ccccc43)nc2-c2ccc(Cl)cc2)cc1` [Example 90, 4-({3-[2-(1H-benzimidazol-1-yl)-4-(4-chlorophenyl)-5-oxazolyl]propanoyl)amino}phenylacetic acid], the melting point was 247 to 248 °C.

`CCOP(=O)(Cc1ccc(NC(=O)CCCc2oc(-c3ccccc3)nc2-c2ccc(Cl)cc2)cc1)OCC`: the melting point lay within 152 to 153 °C.

`CCOP(=O)(OCC)c1ccc(NC(=O)CCc2oc(-n3cnc4ccccc43)nc2-c2ccc(Cl)cc2)cc1` displayed a melting point of 249 to 250 °C.

In turn, `CN(CCS(C)(=O)=O)C(=O)CCc1oc(-n2cnc3ccccc32)nc1-c1ccc(Cl)cc1` [Example 303, 3-[2-(1H-benzoimidazol-1-yl)-4-(4-chlorophenyl)-5-oxazolyl]-N-[2-(methylsulfonyl)ethyl]-N-methylpropanamide] yielded a melting point of 141 to 142 °C.

The compound `CCOP(=O)(Cc1ccc(NC(=O)CCc2sc(-c3ccccc3)nc2-c2ccc(Cl)cc2)cc1)OCC` registered a melting point of 164 to 165 °C.

On to `NC(=O)/C=C/c1oc(-c2ccccc2)nc1-c1ccc(Cl)cc1` [Example 55, (2E)-3-[4-(4-chlorophenyl)-2-phenyl-5-oxazolyl]propenamide], for which the melting point is 240 to 241 °C.

`CCOP(=O)(Cc1ccccc1NC(=O)CCCc1oc(-n2cnc3ccccc32)nc1-c1ccc(Cl)cc1)OCC` returned a melting point of 133 to 136 °C.

`CCOP(=O)(Cc1ccc(NC(=O)CCc2oc(C3CCCCC3)nc2-c2ccc(Cl)cc2)cc1)OCC`: the melting point was in the range of 133 to 134 °C.

For `O=C(/C=C/c1oc(-c2ccccc2)nc1-c1ccc(Cl)cc1)Nc1ccc(C(=O)O)cc1` [Example 65, 4-({(2E)-3-[4-(4-chlorophenyl)-2-phenyl-5-oxazolyl]propenoyl}amino)benzoic acid], the melting point was in the range of 275 to 276 °C.

Regarding `NS(=O)(=O)c1ccc(CNC(=O)CCc2oc(-c3ccccc3)nc2-c2ccc(Cl)cc2)cc1` [Example 165, N-[4-(aminosulfonyl)benzyl]-3-[4-(4-chlorophenyl)-2-phenyl-5-oxazolyl]propionamide], the melting point fell in the range of 225 to 227 °C.

The compound `Cc1nccn1-c1nc(-c2ccc(Cl)cc2)c(CCC(=O)Nc2ccc(CC#N)cc2)o1` [Example 141, 3-[4-(4-chlorophenyl)-2-(2-methyl-1-imidazolyl)-5-oxazolyl]-N-[4-(cyanomethyl)phenyl]propionamide] had a melting point of 187 to 188 °C.

As to `CCCc1nc(-c2ccc(Cl)cc2)c(CCC(N)=O)o1` [Example 29, 3-[4-(4-chlorophenyl)-2-propyl-5-oxazolyl]propionamide], the melting point lay in the range of 150 to 151 °C.

Compound `NC(=O)CCc1oc(-c2ccccc2)nc1-c1ccc(Cl)cc1` [Example 43, 3-[4-(4-chlorophenyl)-2-phenyl-5-oxazolyl]propionamide] returned a melting point of 207 to 208 °C.

For `CCNC(=O)CCCc1oc(-c2ccccc2)nc1-c1ccc(Cl)cc1` [Example 49, N-ethyl-4-[4-(4-chlorophenyl)-2-phenyl-5-oxazolyl]butanamide], the melting point is 127 to 128 °C.

Regarding `O=C(CCc1oc(-n2cnc3ccccc32)nc1-c1ccc(Cl)cc1)NCC(=O)NCc1ccccc1` [Example 148, 2-({3-[2-(1H-benzimidazol-1-yl)-4-(4-chlorophenyl)-5-oxazolyl]propanoyl}amino)-N-benzylacetamide], the melting point was in the range of 186 to 187 °C.

Take `Cc1nc(-c2ccc(Cl)cc2)c(CCC(=O)N2CCS(=O)(=O)CC2)o1` [Example 241, 4-{3-[4-(4-chlorophenyl)-2-methyl-5-oxazolyl]propanoyl}thiomorpholine-1,1-dioxide]: the melting point was 124 to 125 °C.

Regarding `O=C(CCc1oc(-n2cnc3ccccc32)nc1-c1ccc(Cl)cc1)Nc1ccc(OC(F)(F)F)cc1` [Example 122, 3-[2-(1H-benzimidazol-1-yl)-4-(4-chlorophenyl)-5-oxazolyl]-N-[4-(trifluoromethoxy)phenyl]propionamide], the melting point is 174 to 175 °C.

In the case of `NC(=O)c1ccc(NC(=O)CCc2sc(-c3ccccc3)nc2-c2ccc(Cl)cc2)cc1` [Example 67, 4-({3-[4-(4-chlorophenyl)-2-phenyl-5-thiazolyl]propanoyl}amino)benzamide], the melting point was ≥ 300 °C (dec.).

As for `O=C(CCc1oc(-n2cnc3ccccc32)nc1-c1ccc(Cl)cc1)Nc1ccc(Cl)cc1` [Example 79, 3-[2-(1H-benzimidazol-1-yl)-4-(4-chlorophenyl)-5-oxazolyl]-N-(4-chlorophenyl)propionamide], the melting point lay within 248 to 249 °C.

In turn, `CCN(CC)C(=O)Cc1ccc(NC(=O)CCc2oc(-n3cnc4ccccc43)nc2-c2ccc(Cl)cc2)cc1` [Example 106, 2-[4-({3-[2-(1H-benzimidazol-1-yl)-4-(4-chlorophenyl)-5-oxazolyl]propanoyl}amino)phenyl]-N,N-diethylacetamide] displayed a melting point of 209 to 210 °C.

In turn, `CCOP(=O)(Cc1ccc(NC(=O)CCCc2oc(N3CCCC3)nc2-c2ccc(Cl)cc2)cc1)OCC` returned a melting point of 127 to 128 °C.

Compound `Cc1ccc(CNC(=O)CCCc2oc(-n3cnc4ccccc43)nc2-c2ccc(Cl)cc2)cc1` [Example 196, 4-[2-(1H-benzimidazol-1-yl)-4-(4-chlorophenyl)-5-oxazolyl]-N-(4-methylbenzyl)butanamide] yielded a melting point of 190 to 191 °C.

`O=C(CCc1oc(-n2cnc3ccccc32)nc1-c1cccc(Cl)c1)N1CCC(O)CC1` [Example 257, 1-{3-[2-(1H-benzoimidazol-1-yl)-4-(3-chlorophenyl)-5-oxazolyl]propanoyl}-4-piperidinol] displayed a melting point of 97 to 98 °C.

Consider `NS(=O)(=O)c1ccc(CNC(=O)CCc2oc(-n3cnc4ccccc43)nc2-c2ccc(Cl)cc2)cc1` [Example 151, N-[4-(aminosulfonyl)benzyl]-3-[2-(1H-benzimidazol-1-yl)-4-(4-chlorophenyl)-5-oxazolyl]propionamide], for which the melting point was 255 to 256 °C.

Take `NC(=O)CCc1oc(Sc2ccccn2)nc1-c1ccc(Cl)cc1` [Example 36, 3-[4-(4-chlorophenyl)-2-(2-pyridinylsulfanyl)-5-oxazolyl]propionamide]: the melting point was in the range of 162 to 163 °C.

On to `CCOP(=O)(Cc1ccc(NC(=O)CCc2oc(-n3cnc(C)c3C)nc2-c2ccc(Cl)cc2)cc1)OCC`, for which the melting point lay within 179 to 180 °C.

On to `O=C(CCc1oc(-n2cnc3ccccc32)nc1-c1ccc(Cl)cc1)NCc1ccccc1F` [Example 137, 3-[2-(1H-benzimidazol-1-yl)-4-(4-chlorophenyl)-5-oxazolyl]-N-(2-fluorobenzyl)propionamide], for which the melting point was in the range of 202 to 203 °C.

Compound `Cc1ncn(-c2nc(-c3ccc(Cl)cc3)c(CCC(N)=O)o2)c1C` [Example 19, 3-[4-(4-chlorophenyl)-2-(4,5-dimethyl-1-imidazolyl)-5-oxazolyl]propionamide] showed a melting point of 232 to 233 °C.
